Patent US11613527B2, “Enzyme inhibitors” (KalVista Pharmaceuticals Limited, priority 2019, dated 2023)
pIC50: −log10 of the molar value. In brackets after ≈: the same amount, converted by molar mass.

Legend:
[1] = Solubility after 24 hrs in Fasted State Simulated Intestinal Fluid (FaSSIF); assay type: physicochemical; details: Fasted State Simulated Intestinal Fluid (FaSSIF), thermodynamic from solid, 24 hrs at 37° C., nominal concentration 1 mg/mL (as free base)
Experimental: Selected compounds were further screened for solubility in Fasted State Simulated Intestinal Fluid (FaSSIF).
Approximately 1 mg of test compound is accurately weighed into a 2 mL vial. Volumes of the FaSSIF solution (pre-heated to 37° C.) were added to a vial to give a nominal concentration of 1 mg/mL (as free base). The FaSSIF solution was prepared on the day of use. The samples were vortexed before being placed in a Titramax 1000 shaker for 24 hrs at 37° C. and approximately 500 rpm. The samples were transferred to eppendorf tubes and centrifuged at 15,000 g (r.c.f.) for 10 min at 37° C. and analysed for concentration of test compound by LCMS.

[2] = Pharmacokinetics following a single oral dose in male Sprague-Dawley rats; assay type: in vivo; details: rat, nominal 5 mg/kg in 10% DMSO/10% cremophor/80% SWFI, plasma
Experimental: Pharmacokinetic studies of the compounds in Table 14 were performed to assess the pharmacokinetics following a single oral dose in male Sprague-Dawley rats. Two rats were given a single po dose of 5 mL/kg of a nominal 1 mg/mL (5 mg/kg) composition of test compound in 10% DMSO/10% cremophor/80% SWFI vehicle. Following dosing, blood samples were collected over a period of […]. Sample times were 5, 15 and 30 minutes then 1, 2, 4, 6, 8 and 12 hours. Following collection, blood samples were centrifuged and the plasma fraction analysed for concentration of test compound by LCMS.

Human plasma kallikrein = Human plasma kallikrein (Homo sapiens (Human), UniProt P03952); assay: Determination of the IC50 for plasma kallikrein (fluorogenic substrate H-DPro-Phe-Arg-AFC); assay type: biochemical; details: class symbols A-D, read-out: IC50 (human PKal)
Procedure, shortened: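 Enzyme from a commercial source was incubated at 25° C. with H-DPro-Phe-Arg-AFC substrate and a range of test compound concentrations. Residual activity was taken as the initial reaction rate, followed by absorbance change at 410 nm, and IC50 values were derived from it.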

Human KLK1 = Human KLK1 (Homo sapiens (Human), UniProt P06870); assay: Determination of the IC50 for KLK1 (fluorogenic substrate H-DVal-Leu-Arg-AFC); assay type: biochemical
Procedure, shortened: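 Human KLK1 incubated at 25° C. with fluorogenic substrate H-DVal-Leu-Arg-AFC and a range of test compound concentrations. Residual activity taken as initial reaction rate from absorbance change at 410 nm; IC50 derived from these rates.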

Human FXIa = Human FXIa (Homo sapiens (Human), UniProt P03951); assay: Determination of the % inhibition for FXIa (fluorogenic substrate Z-Gly-Pro-Arg-AFC; 40 μM or IC50); assay type: biochemical
Procedure, shortened: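 Human FXIa incubated at 25 °C with fluorogenic substrate Z-Gly-Pro-Arg-AFC and test compound at 40 μM for % inhibition, or a concentration series for IC50. Residual activity taken as initial rate from absorbance change at 410 nm.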

Sequence of Human plasma kallikrein (P03952 391-638): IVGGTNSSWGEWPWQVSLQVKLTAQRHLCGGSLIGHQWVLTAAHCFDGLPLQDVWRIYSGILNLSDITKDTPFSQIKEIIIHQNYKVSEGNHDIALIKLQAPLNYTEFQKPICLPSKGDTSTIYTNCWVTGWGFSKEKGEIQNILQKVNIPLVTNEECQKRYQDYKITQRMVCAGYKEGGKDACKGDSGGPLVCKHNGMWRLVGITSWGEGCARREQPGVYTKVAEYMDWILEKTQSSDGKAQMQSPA
Sequence of Human plasma kallikrein (P03952 20-390 partner): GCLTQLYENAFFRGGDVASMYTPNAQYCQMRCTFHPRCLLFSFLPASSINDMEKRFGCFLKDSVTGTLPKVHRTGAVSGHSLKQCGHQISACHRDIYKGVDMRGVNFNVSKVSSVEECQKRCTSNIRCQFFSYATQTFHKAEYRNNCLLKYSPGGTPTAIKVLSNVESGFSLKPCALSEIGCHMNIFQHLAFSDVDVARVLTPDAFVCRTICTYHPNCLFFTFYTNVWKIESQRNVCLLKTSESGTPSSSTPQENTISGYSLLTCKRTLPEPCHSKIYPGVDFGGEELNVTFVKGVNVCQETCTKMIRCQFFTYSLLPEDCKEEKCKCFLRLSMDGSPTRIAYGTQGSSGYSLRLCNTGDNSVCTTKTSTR
Sequence of Human FXIa (P03951 388-625): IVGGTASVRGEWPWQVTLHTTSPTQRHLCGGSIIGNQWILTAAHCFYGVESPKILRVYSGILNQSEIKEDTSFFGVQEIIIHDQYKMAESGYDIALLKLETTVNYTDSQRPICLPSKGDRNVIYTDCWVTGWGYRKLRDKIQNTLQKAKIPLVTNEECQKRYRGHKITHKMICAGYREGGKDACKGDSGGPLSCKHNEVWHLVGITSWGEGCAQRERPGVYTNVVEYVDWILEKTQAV
Sequence of Human FXIa (P03951 19-387 partner): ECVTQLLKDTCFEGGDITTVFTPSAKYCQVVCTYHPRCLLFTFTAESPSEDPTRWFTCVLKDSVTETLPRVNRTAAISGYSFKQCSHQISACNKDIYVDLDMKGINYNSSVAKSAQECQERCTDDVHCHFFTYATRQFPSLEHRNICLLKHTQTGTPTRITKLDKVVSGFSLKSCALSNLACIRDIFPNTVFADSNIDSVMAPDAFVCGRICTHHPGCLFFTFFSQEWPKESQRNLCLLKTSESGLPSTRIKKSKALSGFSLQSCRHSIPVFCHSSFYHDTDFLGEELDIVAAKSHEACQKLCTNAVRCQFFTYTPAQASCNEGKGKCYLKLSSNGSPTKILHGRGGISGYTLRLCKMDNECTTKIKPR
Sequence of Human KLK1 (P06870 25-262): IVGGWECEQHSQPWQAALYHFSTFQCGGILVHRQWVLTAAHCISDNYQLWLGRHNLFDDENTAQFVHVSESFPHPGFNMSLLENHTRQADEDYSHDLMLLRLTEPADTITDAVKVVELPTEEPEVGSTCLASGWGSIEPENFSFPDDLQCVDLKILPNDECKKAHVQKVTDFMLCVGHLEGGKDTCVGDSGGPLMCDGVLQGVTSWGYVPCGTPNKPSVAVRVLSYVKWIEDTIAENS

COCc1nn(Cc2ccc3c(c2)CN(C(C)C)C3)cc1C(=O)NCc1c(-n2cc(C)nn2)ccc(OC)c1F [Example 55, N-{[2-Fluoro-3-methoxy-6-(4-methyl-1,2,3-triazol-1-yl)phenyl]methyl}-1-[(2-isopropyl-1,3-dihydroisoindol-5-yl)methyl]-3-(methoxymethyl)pyrazole-4-carboxamide]
solubility at 24 h [1]: > 1000 µg/mL
Cmax [2]: 136 ng/mL

COc1ccc(-n2cc(C)nn2)c(CNC(=O)c2cn(Cc3cc4n(n3)CCN(C)C4)nc2C(F)(F)F)c1F [Example 125, N-{[2-fluoro-3-methoxy-6-(4-methyl-1,2,3-triazol-1-yl)phenyl]methyl}-1-({5-methyl-4H,6H,7H-pyrazolo[1,5-a]pyrazin-2-yl}methyl)-3-(trifluoromethyl)pyrazole-4-carboxamide]
pIC50 (Human plasma kallikrein): > 8.00
pIC50 (Human KLK1): < 4.40
pIC50 (Human FXIa): < 4.40
solubility at 24 h [1]: 650 µg/mL (≈ 1190 µM)

COCc1nn(Cc2ccc3c(c2)COCC3)cc1C(=O)NCc1c(-n2cc(C)nn2)ccc(OC)c1F [Example 133, 1-(3,4-dihydro-1H-2-benzopyran-7-ylmethyl)-N-{[2-fluoro-3-methoxy-6-(4-methyl-1,2,3-triazol-1-yl)phenyl]methyl}-3-(methoxymethyl)pyrazole-4-carboxamide]
pIC50 (Human plasma kallikrein): 6.00 to 7.00
pIC50 (Human KLK1): < 4.40
pIC50 (Human FXIa): < 4.40
solubility at 24 h [1]: 50 µg/mL (≈ 96 µM)

COc1ccc(-n2cc(C)nn2)c(CNC(=O)c2cn(Cc3cc4n(n3)CCN(C)C4)nc2C(F)F)c1F [Example 136, 3-(difluoromethyl)-N-{[2-fluoro-3-methoxy-6-(4-methyl-1,2,3-triazol-1-yl)phenyl]methyl}-1-({5-methyl-4H,6H,7H-pyrazolo[1,5-a]pyrazin-2-yl}methyl)pyrazole-4-carboxamide]
pIC50 (Human plasma kallikrein): > 8.00
pIC50 (Human KLK1): < 4.40
pIC50 (Human FXIa): < 4.40
solubility at 24 h [1]: 730 µg/mL (≈ 1380 µM)

COc1ccc(-n2cc(C)nn2)c(CNC(=O)c2cn(Cc3cnc4c(c3)CCN(C)C4)nc2C(F)F)c1F [Example 137, 3-(difluoromethyl)-N-{[2-fluoro-3-methoxy-6-(4-methyl-1,2,3-triazol-1-yl)phenyl]methyl}-1-[(7-methyl-6,8-dihydro-5H-1,7-naphthyridin-3-yl)methyl]pyrazole-4-carboxamide]
pIC50 (Human plasma kallikrein): > 8.00
pIC50 (Human KLK1): < 4.40
pIC50 (Human FXIa): 4.66
solubility at 24 h [1]: 810 µg/mL (≈ 1500 µM)

COc1ccc(-n2cc(C)nn2)c(CNC(=O)c2cn(Cc3ccc4c(n3)CCN(C)C4)nc2C(F)(F)F)c1F [Example 138, N-{[2-fluoro-3-methoxy-6-(4-methyl-1,2,3-triazol-1-yl)phenyl]methyl}-1-[(6-methyl-7,8-dihydro-5H-1,6-naphthyridin-2-yl)methyl]-3-(trifluoromethyl)pyrazole-4-carboxamide]
pIC50 (Human plasma kallikrein): 7.52 to 8.00
pIC50 (Human KLK1): < 4.40
pIC50 (Human FXIa): < 4.40
solubility at 24 h [1]: > 1000 µg/mL

COCc1nc(C(=O)NCc2c(-n3cc(C)nn3)ccc(OC)c2F)cn1Cc1ccc2c(c1)CN(C(C)C)C2 [Example 147, N-{[2-fluoro-3-methoxy-6-(4-methyl-1,2,3-triazol-1-yl)phenyl]methyl}-1-[(2-isopropyl-1,3-dihydroisoindol-5-yl)methyl]-2-(methoxymethyl)imidazole-4-carboxamide]
pIC50 (Human plasma kallikrein): 7.52 to 8.00
pIC50 (Human KLK1): < 4.40
pIC50 (Human FXIa): < 4.40
solubility at 24 h [1]: > 1000 µg/mL

COCc1nc(C(=O)NCc2c(-n3cc(C)nn3)ccc(OC)c2F)cn1Cc1ccc2c(c1)CN(C)CC2 [Example 148, N-{[2-fluoro-3-methoxy-6-(4-methyl-1,2,3-triazol-1-yl)phenyl]methyl}-2-(methoxymethyl)-1-[(2-methyl-3,4-dihydro-1H-isoquinolin-7-yl)methyl]imidazole-4-carboxamide]
pIC50 (Human plasma kallikrein): 7.52 to 8.00
pIC50 (Human KLK1): < 4.40
pIC50 (Human FXIa): < 4.40
solubility at 24 h [1]: > 1000 µg/mL

COc1ccc(-n2cc(C)nn2)c(CNC(=O)c2cn(Cc3ccc4c(c3)CN(C)CC4)c(C3CC3)n2)c1F [Example 149, 2-cyclopropyl-N-{[2-fluoro-3-methoxy-6-(4-methyl-1,2,3-triazol-1-yl)phenyl]methyl}-1-[(2-methyl-3,4-dihydro-1H-isoquinolin-7-yl)methyl]imidazole-4-carboxamide]
pIC50 (Human plasma kallikrein): 7.52 to 8.00
pIC50 (Human KLK1): < 4.40
pIC50 (Human FXIa): < 4.40
solubility at 24 h [1]: 910 µg/mL (≈ 1720 µM)

COc1ccc(-n2cc(C)nn2)c(CNC(=O)c2cn(Cc3ccc4c(c3)CN(C)CC4)c(C)n2)c1F [Example 151, N-{[2-fluoro-3-methoxy-6-(4-methyl-1,2,3-triazol-1-yl)phenyl]methyl}-2-methyl-1-[(2-methyl-3,4-dihydro-1H-isoquinolin-7-yl)methyl]imidazole-4-carboxamide]
pIC50 (Human plasma kallikrein): 7.52 to 8.00
pIC50 (Human KLK1): < 4.40
pIC50 (Human FXIa): < 4.40
solubility at 24 h [1]: 750 µg/mL (≈ 1490 µM)

COc1ccc(-n2cc(C)nn2)c(CNC(=O)c2cn(Cc3ccc4c(c3)CN(C)CC4)nn2)c1F [Example 152, N-{[2-fluoro-3-methoxy-6-(4-methyl-1,2,3-triazol-1-yl)phenyl]methyl}-1-[(2-methyl-3,4-dihydro-1H-isoquinolin-7-yl)methyl]-1,2,3-triazole-4-carboxamide]
pIC50 (Human plasma kallikrein): > 8.00
pIC50 (Human KLK1): < 4.40
pIC50 (Human FXIa): < 4.40
solubility at 24 h [1]: 1000 µg/mL (≈ 2040 µM)

COc1ccc(-n2cc(C)nn2)c(CNC(=O)c2cn(Cc3ccc4c(c3)CN(C(C)C)C4)nn2)c1F [Example 153, N-{[2-fluoro-3-methoxy-6-(4-methyl-1,2,3-triazol-1-yl)phenyl]methyl}-1-[(2-isopropyl-1,3-dihydroisoindol-5-yl)methyl]-1,2,3-triazole-4-carboxamide]
pIC50 (Human plasma kallikrein): > 8.00
pIC50 (Human KLK1): < 4.40
pIC50 (Human FXIa): < 4.40
solubility at 24 h [1]: 950 µg/mL (≈ 1880 µM)

COCc1nn(Cc2ccc3c(c2)CN(C)CC3)cc1C(=O)NCc1c(-n2cnc(C(F)F)n2)ccc(OC)c1Cl [Example 156, N-({2-chloro-6-[3-(difluoromethyl)-1,2,4-triazol-1-yl]-3-methoxyphenyl}methyl)-3-(methoxymethyl)-1-[(2-methyl-3,4-dihydro-1H-isoquinolin-7-yl)methyl]pyrazole-4-carboxamide]
pIC50 (Human plasma kallikrein): > 8.00
pIC50 (Human KLK1): < 4.40
pIC50 (Human FXIa): < 4.40
solubility at 24 h [1]: > 1000 µg/mL

COc1ccc(-n2cc(C)nn2)c(CNC(=O)c2ccc(=O)n(Cc3ccc4c(c3)CN(C)CC4)c2)c1F [Example 160, N-{[2-fluoro-3-methoxy-6-(4-methyl-1,2,3-triazol-1-yl)phenyl]methyl}-1-[(2-methyl-3,4-dihydro-1H-isoquinolin-7-yl)methyl]-6-oxopyridine-3-carboxamide]
pIC50 (Human plasma kallikrein): > 8.00
pIC50 (Human KLK1): < 4.40
pIC50 (Human FXIa): < 4.40
solubility at 24 h [1]: 820 µg/mL (≈ 1590 µM)

COc1ccc(-n2cc(C)nn2)c(CNC(=O)c2cncc(Cc3ccc4c(c3)CN(C)CC4)c2)c1F [Example 161, N-{[2-fluoro-3-methoxy-6-(4-methyl-1,2,3-triazol-1-yl)phenyl]methyl}-5-[(2-methyl-3,4-dihydro-1H-isoquinolin-7-yl)methyl]pyridine-3-carboxamide]
pIC50 (Human plasma kallikrein): > 8.00
pIC50 (Human KLK1): < 4.40
pIC50 (Human FXIa): < 4.40
solubility at 24 h [1]: > 1000 µg/mL

COCc1nn(Cc2ccc3nc(C)ccc3c2)cc1C(=O)NCc1c(-n2cnnn2)ccc(OC)c1F [RC2, N-{[2-fluoro-3-methoxy-6-(1,2,3,4-tetrazol-1-yl)phenyl]methyl}-3-(methoxymethyl)-1-[(2-methylquinolin-6-yl)methyl]pyrazole-4-carboxamide, reference compound]
pIC50 (Human plasma kallikrein): > 8.00
pIC50 (Human KLK1): < 4.40
pIC50 (Human FXIa): 6.66
solubility at 24 h [1]: 20 µg/mL (≈ 38.7 µM)

COCc1nn(Cc2ccc3ncccc3c2)cc1C(=O)NCc1c(-n2cnnn2)ccc(OC)c1F [RC3, N-{[2-fluoro-3-methoxy-6-(1,2,3,4-tetrazol-1-yl)phenyl]methyl}-3-(methoxymethyl)-1-(quinolin-6-ylmethyl)pyrazole-4-carboxamide, reference compound]
pIC50 (Human plasma kallikrein): > 8.00
pIC50 (Human KLK1): < 4.40
pIC50 (Human FXIa): 5.72
solubility at 24 h [1]: 20 µg/mL (≈ 39.8 µM)

COCc1nn(Cc2cnc(N3CCCC3)nc2)cc1C(=O)NCc1c(-n2cc(C(F)F)nn2)ccc(OC)c1F [RC7, N-({6-[4-(difluoromethyl)-1,2,3-triazol-1-yl]-2-fluoro-3-methoxyphenyl}methyl)-3-(methoxymethyl)-1-{[2-(pyrrolidin-1-yl)pyrimidin-5-yl]methyl}pyrazole-4-carboxamide, reference compound]
pIC50 (Human plasma kallikrein): > 8.00
pIC50 (Human KLK1): < 4.40
pIC50 (Human FXIa): 6.25
solubility at 24 h [1]: 10 µg/mL (≈ 17.5 µM)
